Data as given in patent US20240190944A1, “MODIFIED CELLS FOR THE PRODUCTION OF A RECOMBINANT PRODUCT OF INTEREST” (Genentech, Inc., priority 2021, published 2024).

Columns and labels:
Type in all cases: cell-based, Chinese Hamster
[1] = test system: PDGFRa; assay: Chemical UPR induction in CHO cultures, PDGFRa western blot and qPCR; conditions: mAb1-expressing CHO DG44 and CHO-K1 seed train cultures; optimal pH
From the text: FIGS. 1A-1G. […] FIG. 1C depicts western blot analysis of two mAb1-expressing host cell lines, CHO DG44 and CHO-K1, treated with chemical UPR inducers: tunicamycin and DTT. FIG. 1D depicts qPCR analysis of PDGFRa mRNA levels in both host cell lines of FIG. 1C treated with tunicamycin and DTT. FIG. 1E depicts western blot analysis of mAb1-expressing CHO-K1 cells treated with tunicamycin to activate the UPR in the presence of UPR pathway-specific inhibitors. […] FIG. 1F depicts qPCR analysis of PDGFRa mRNA levels in CHO-K1 cells treated with tunicamycin in the presence of UPR pathway-specific inhibitors. FIG. 1G depicts western blot analysis of WT and PERK KO empty host CHO-K1 (Clone 9) cell lines treated with tunicamycin and PERK inhibitor.
FIGS. 2A-2E. FIG. 2A depicts western blot analysis of mAb1-expressing CHO-K1 cells treated with thapsigargin to activate the UPR in the presence of different UPR pathway-specific inhibitors. […]
An interesting phenomenon was previously described where activation of UPR in seed train culture, triggered by lower pH conditions in a particular CHO cell line, negatively affected culture growth in production media at target pH (Tung, et al., 2018). When exposed to low pH conditions, high intracellular BiP levels were detected in this cell line that correlated to low growth profiles during production and poor bioprocess outcomes (Tung, et al., 2018). […]

[2] = test system: empty host CHO-K1 cells; assay: Growth of empty host CHO-K1 cells in seed train media with PDGFRa inhibitor and/or insulin
From the text: (§1) FIGS. 3A-3D. PDGFRa signaling is important for cell growth, e.g., CHO cell growth, and growth factor signaling is intact after PDGFRa inhibition. FIG. 3A is a schematic of PDGFRa and insulin receptor (IR) signaling upstream of protein synthesis, cell cycle progression and cell proliferation. Bolder arrows indicate stronger activation by respective receptors. FIG. 3B depicts empty CHO-K1 host cells VCC and % viability after 4 days in the presence or absence of PDGFRa inhibitor and/or insulin in the seed train media. FIG. 3C depicts western blot analysis of empty host CHO-K1 cells (of FIG. 3B) after 4 days in the presence or absence of PDGFRa inhibitor and/or insulin in the seed train media. FIG. 3D depicts Day 12 relative IVCC, % viability, relative titer and relative Qp of mAb2-expressing CHO-K 1 cells in the presence of PDGFRa inhibitor and/or insulin during production.
FIGS. 4A-4D. FIG. 4A depicts empty host CHO-K1 cells viable cell count (VCC) and % viability after 4 days in increasing PDGFRa inhibitor concentrations in the seed train media. FIG. 4B depicts western blot analysis of empty host CHO-K1 cells after 4 days in increasing PDGFRa inhibitor concentrations in the seed train media. FIG. 4C depicts western blot analysis mAb2-expressing CHO-K 1 cells in production in the presence or absence of PERK inhibitor at 10 μM concentration. […]

[3] = test system: mAb2-expressing CHO-K1 cells; assay: Fed-batch production of mAb2-expressing CHO cell line with PDGFRa inhibitor and/or insulin
From the text: as §1
Fed-batch production cultures were performed with proprietary chemically defined medium using different vessels (tube-spin and AMBR15) along with bolus feeds on Days 3, 7 and 10 as previously mentioned (Hsu, Aulakh, Traul, & Yuk, 2012). […] Titers were determined using Protein-A affinity chromatography with UV detection. Percent viability and viable cell count were determined using a Vi-Cell XR instrument (Beckman Coulter Item #383721). […]

Tunicamycin
fully functional PDGFRa levels (protein and mRNA) [1]: reduced at both the protein and mRNA levels

insulin
cellular growth of cultures treated with the PDGFRa inhibitor after addition of insulin [2]: partially rescued cellular growth
cell growth inhibition in production culture after addition of insulin ([3]; insulin on Day 3, PDGFRa inhibited): partially rescued the observed cell growth inhibition

COc1cc2ncc(-c3ccccc3)nc2cc1OC [PDGFRa inhibitor, AG-1296]
reduction of cell growth ([2]; 20 μM, 4 days): approximately 50%
cell growth and cell viability in fed-batch production ([3]; PDGFRa inhibition on Day 3): significantly decreased cell growth, without affecting cell viability
